In ChEMBL document CHEMBL1129718, “Morphan based substance P antagonists” (Bioorg Med Chem Lett, 1996):

Target: Substance-P receptor (Homo sapiens, UniProt P25103)
Test: Compound was evaluated for binding affinity towards neurokinin NK1 receptor.

Sequence of Substance-P receptor (P25103 whole entry): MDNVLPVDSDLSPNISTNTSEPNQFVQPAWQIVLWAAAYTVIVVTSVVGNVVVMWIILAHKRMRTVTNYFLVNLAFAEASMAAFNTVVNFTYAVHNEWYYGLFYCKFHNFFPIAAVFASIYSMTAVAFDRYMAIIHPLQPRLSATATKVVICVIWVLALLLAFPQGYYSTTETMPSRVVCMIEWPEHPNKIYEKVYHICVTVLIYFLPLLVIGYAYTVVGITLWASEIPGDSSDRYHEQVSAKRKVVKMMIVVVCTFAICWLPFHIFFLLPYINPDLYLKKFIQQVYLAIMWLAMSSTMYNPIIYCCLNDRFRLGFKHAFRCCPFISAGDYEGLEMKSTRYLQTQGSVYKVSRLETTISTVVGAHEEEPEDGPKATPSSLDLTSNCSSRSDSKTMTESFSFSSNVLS

SMILES	Ki
COc1ccccc1CN[C@@H]1C2CCNC1(c1ccccc1)CC=C2C (some centres not stated)	> 3160 nM
COc1ccccc1CN[C@H]1C2CCNC1(c1ccccc1)CC=C2C (some centres not stated)	0.631 nM
